Where a SMILES comes first, the peptide text is derived from it.

Assay [1] addresses Delta-type opioid receptor (Mus musculus, UniProt P32300). The experiment in a line: Agonistic activity at delta opioid receptor in mouse vas deferens assessed as inhibition of electrically evoked twitch. Type of assay: functional, tissue-based.
In assay [2] the target is Mu-type opioid receptor (Rattus norvegicus, UniProt P33535). The assay can be described thus: Displacement of [3H]DAMGO from mu opioid receptor in rat brain synaptosomes P2 fraction. Type of assay: subcellular. For orientation: In a radioligand displacement assay an active substance lowers the binding of a labelled ligand.
In assay [3] the target is Opioid receptors; mu & delta (Rattus norvegicus) (UniProt P33533+P33535). The assay can be described thus: Selectivity of rat brain delta opioid receptor over rat brain mu opioid receptor.
Assay [4] addresses Mu-type opioid receptor (Cavia porcellus, UniProt P97266). The experiment in a line: Agonistic activity at mu opioid receptor in guinea pig ileum assessed as inhibition of electrically evoked twitch. In kind it is functional, tissue-based.
Assay [5] addresses Delta-type opioid receptor (Rattus norvegicus, UniProt P33533). The assay can be described thus: Displacement of [3H]DPDPE from delta opioid receptor in rat brain synaptosomes P2 fraction. In kind it is subcellular.
The target in assay [6] is Delta-type opioid receptor (Mus musculus) (UniProt P32300). The assay can be described thus: Antagonist activity at delta opioid receptor in mouse vas deferens assessed as effect on electrically evoked twitch. Type of assay: functional, tissue-based. The conditions noted are these: filed as antagonist.
Delta-type opioid receptor (Mus musculus), sequence (P32300 whole entry): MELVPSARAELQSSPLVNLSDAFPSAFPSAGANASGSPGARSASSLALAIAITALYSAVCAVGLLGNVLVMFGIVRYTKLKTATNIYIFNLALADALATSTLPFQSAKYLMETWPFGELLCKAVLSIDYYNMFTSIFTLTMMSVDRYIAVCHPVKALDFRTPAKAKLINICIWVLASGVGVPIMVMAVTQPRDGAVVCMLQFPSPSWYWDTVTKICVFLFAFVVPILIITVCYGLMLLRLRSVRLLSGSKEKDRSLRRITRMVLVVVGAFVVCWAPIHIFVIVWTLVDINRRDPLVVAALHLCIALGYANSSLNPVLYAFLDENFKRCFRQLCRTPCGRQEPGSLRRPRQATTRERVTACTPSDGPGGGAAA

Opioid receptors; mu & delta (Rattus norvegicus), sequence (P33533 whole entry, looked up): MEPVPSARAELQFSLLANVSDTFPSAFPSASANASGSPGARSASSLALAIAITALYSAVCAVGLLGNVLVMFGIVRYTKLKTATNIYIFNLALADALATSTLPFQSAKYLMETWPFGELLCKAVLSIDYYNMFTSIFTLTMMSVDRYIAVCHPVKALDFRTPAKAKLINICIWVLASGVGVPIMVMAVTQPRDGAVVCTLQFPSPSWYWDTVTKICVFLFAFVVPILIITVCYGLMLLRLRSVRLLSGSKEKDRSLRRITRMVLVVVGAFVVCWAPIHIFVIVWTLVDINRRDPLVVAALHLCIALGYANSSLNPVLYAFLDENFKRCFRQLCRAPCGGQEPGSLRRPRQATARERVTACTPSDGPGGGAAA
Opioid receptors; mu & delta (Rattus norvegicus), sequence (P33535 whole entry, looked up): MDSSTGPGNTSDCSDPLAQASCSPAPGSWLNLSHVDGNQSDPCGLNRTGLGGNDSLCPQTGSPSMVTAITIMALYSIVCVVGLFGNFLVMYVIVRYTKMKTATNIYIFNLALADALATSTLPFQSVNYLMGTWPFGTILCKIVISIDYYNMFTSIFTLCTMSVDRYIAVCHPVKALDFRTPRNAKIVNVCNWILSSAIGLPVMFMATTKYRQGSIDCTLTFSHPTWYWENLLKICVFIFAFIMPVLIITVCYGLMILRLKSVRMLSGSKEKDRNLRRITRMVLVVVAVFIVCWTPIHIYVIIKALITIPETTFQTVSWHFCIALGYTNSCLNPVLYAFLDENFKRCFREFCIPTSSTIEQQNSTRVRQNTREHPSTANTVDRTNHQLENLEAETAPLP
Mu-type opioid receptor (Cavia porcellus, UniProt P97266), sequence (P97266 whole entry): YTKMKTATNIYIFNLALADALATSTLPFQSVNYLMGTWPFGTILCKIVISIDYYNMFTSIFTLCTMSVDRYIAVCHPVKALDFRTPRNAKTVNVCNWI
Delta-type opioid receptor (Mus musculus, UniProt P32300), sequence (P32300 whole entry): as the sequence (P32300 whole entry) above
Delta-type opioid receptor (Rattus norvegicus, UniProt P33533), sequence (P33533 whole entry): as the sequence (P33533 whole entry, looked up) above
Mu-type opioid receptor (Rattus norvegicus, UniProt P33535), sequence (P33535 whole entry): as the sequence (P33535 whole entry, looked up) above

By IC50 is commonly meant the concentration needed to halve the response being measured. A word on the Ki: it is a measure of affinity in units of concentration, obtained from inhibition or displacement. Read a low Ki as higher affinity. Consider `Cc1cc(O)cc(C)c1C[C@H](N)C(=O)N1Cc2ccccc2C[C@H]1C(=O)N[C@@H](CCC(=O)O)C(N)=O` (HELM PEPTIDE1{[Cc1cc(O)cc(C)c1C[C@H](N)C(=O)[*:2]].[Tic].E.[am]}$$$$V2.0), for which the IC50 in assay [1] was 2.58 nM (agonist); on Mu-type opioid receptor [4] it was over 1000 nM. Further, the values for the Ki (on Mu-type opioid receptor [2]; in assay [5]) were 1360 nM (antagonist) and 0.06 nM (antagonist), respectively. In assay [3], the Ratio Ki was 22600.
Take `Cc1cc(O)cc(C)c1C[C@H](N)C(=O)N1Cc2ccccc2CC1C(=O)N[C@@H](CCC(=O)O)C(=O)NCCCCCN` (stereo not given in full): in assay [3], the Ratio Ki is 1700.
With `Cc1cc(O)cc(C)c1C[C@H](N)C(=O)N1Cc2ccccc2C[C@H]1C(=O)N[C@@H](CCC(=O)O)C(=O)NCCCCCN`, the IC50 at Mu-type opioid receptor [4] was over 1000 nM.
The same measure, in the same setting: under `Cc1cc(O)cc(C)c1C[C@H](N)C(=O)N1Cc2ccccc2C[C@H]1C(=O)N[C@@H](CCC(=O)O)C(=O)NCCCCCNC(=S)Nc1ccc(-c2c3ccc(=O)cc-3oc3cc(O)ccc23)c(C(=O)O)c1` stands over 1000 nM.
With `Cc1cc(O)cc(C)c1C[C@H](N)C(=O)N1Cc2ccccc2CC1C(=O)N[C@@H](CCC(=O)O)C(=O)NCCCCCNC(=S)Nc1ccc(-c2c3ccc(=O)cc-3oc3cc(O)ccc23)c(C(=O)O)c1` (stereo not given in full), the Activity result in assay [6] is “Irreversible Antagonist”. The Ratio Ki in assay [3] worked out at 4370.

These data come from ChEMBL document CHEMBL1149280, “Highly selective fluorescent analogue of the potent delta-opioid receptor antagonist Dmt-Tic” (J Med Chem, 2004).
